Patent publication US12648937B2, “Composition containing levamlodipine besylate hydrate and its preparation method” (SHIHUIDA PHARMACEUTICALS GROUP (JILIN) LTD., priority 2019, dated 2026)

Assays:
[1] = Material properties (granulation, stickiness, sieving) of levamlodipine besylate hydrate composition granules; assay type: physicochemical; conditions: granules of given crystalline water content, finishing of granulation, 10 mesh
Description: In order to meet the requirements for the production of solid-form preparation plain tablets, the preparation is a direct compression method. As such, the granules of the active pharmaceutical ingredient need to pass through a sieve below 10 mesh to ensure content uniformity. […] A hydrate composition with a crystalline water content of less than 5.8% can meet the requirements of the finishing of granulation. […] The crystalline water content of the hydrate being controlled below 5.5% can better meet the requirements of making pharmaceutical preparations. 1. Production of Samples: the method of Example 2 is used to prepare samples with corresponding water content.

[2] = Acute toxicity (LD50, Bliss method) of levamlodipine besylate hydrate composition tablets; conditions: Kunming, mouse, in vivo
Procedure: In this experiment the tablet formulation is the one of Example 5, in which the crystalline water content of the levamlodipine besylate hydrate composition is 5.3%.
In this experiment, the LD50 is measured by two administration routes. […] Animals: Kunming mice, half male and half […], each weighing 18-28 g, 10 animals in each group, fasted for 16 hours before use. Dosage: Oral administration: […], 0.6580 (g/kg), intraperitoneal administration: 0.7743, 0.6582, 0.5594, 0.4755, 0.4042 (g/kg) dose gradient: 0.85. Route of administration: experimental methods of oral administration and intraperitoneal administration, 100 mice are selected, fasted for 16 hours, and randomly divided into 10 groups. Oral administration to the first 5 groups, and the dose being 0.35 ml/10 g; intraperitoneal administration to the latter 5 groups, and the dose being 0.2 ml/10 g.

[3] = Thermal stability of hydrate compositions, 45° C. oven for 5 days, impurities by HPLC; assay type: physicochemical; conditions: for Impurity Content, impurities before heating of sample: 0 days; for Impurity Content, sample placed in 45° C. oven for 5 days: amber glass bottles
Procedure: Using the method of Example 2 of the present invention, compositions with different crystalline water content can be prepared and used as samples to test thermal stability.
The samples are placed in amber glass bottles, placed in an oven, and the temperature is adjusted to 45° C., and the relevant substances are tested after settled for 5 days.
The test method is as follows: The chromatographic conditions and system applicability test: Use octadecylsilane-bonded silica gel as the filler; methanol-0.03 mol/L potassium dihydrogen phosphate solution (75:25) as the mobile phase, the detection wavelength is 238 nm, the number of theoretical plates should be no less than 500 calculated in levamlodipine.
Preparation of the Test Solution: Take about 17 mg of this product, precisely weigh it, put it in a 100 ml volumetric flask, add a mobile phase to dissolve and dilute to the mark, shake well, precisely measure 5 ml, put it in a 25 ml volumetric flask, add a mobile phase to the mark, shake well to obtain the solution.
Determination Method: Precisely measure 10 μl of the reference solution and the test solution, inject into the liquid chromatography machine, record the chromatogram, measure the peak area, and calculate by the external standard method.

Compound	Sieving Performance [1]	Impurity Content, impurities before heating of sample [3]	Impurity Content, sample placed in 45° C. oven for 5 days ([3]; 45° C. oven, 5 days)	also measured
CCOC(=O)C1=C(COCCN)NC(C)=C(C(=O)OC)[C@@H]1c1ccccc1Cl.O=S(=O)(O)c1ccccc1 [5.5%]	have no stickiness			Stickiness [1]: no stickiness
CCOC(=O)C1=C(COCCN)NC(C)=C(C(=O)OC)[C@@H]1c1ccccc1Cl.O=S(=O)(O)c1ccccc1 [5.8%]	have essentially no			Stickiness [1]: essentially no
CCOC(=O)C1=C(COCCN)NC(C)=C(C(=O)OC)[C@@H]1c1ccccc1Cl.O=S(=O)(O)c1ccccc1 [5.9%]	are less sticky			
CCOC(=O)C1=C(COCCN)NC(C)=C(C(=O)OC)[C@@H]1c1ccccc1Cl.O=S(=O)(O)c1ccccc1 [6.0%]	stick together even			
CCOC(=O)C1=C(COCCN)NC(C)=C(C(=O)OC)[C@@H]1c1ccccc1Cl.O=S(=O)(O)c1ccccc1 [(4 s)-2-[(2-aminoethoxy)methyl]-4-(2-chlorophenyl)-6-methyl-1,4-dihydro-3,5-pyridinedicarboxylic acid-3-ethyl ester, 5-methyl ester benzenesulfonate hydrate]				LD50 at 7 days ([2]; ip): 16 ± 1.38 mg/kg; LD50 at 7 days ([2]; po): 24.9 ± 1.75 mg/kg
CCOC(=O)C1=C(COCCN)NC(C)=C(C(=O)OC)[C@@H]1c1ccccc1Cl.O=S(=O)(O)c1ccccc1 [Sample 1]		None	0.07%	change in the appearance ([3]; 45° C. oven, 5 days): no obvious change
CCOC(=O)C1=C(COCCN)NC(C)=C(C(=O)OC)[C@@H]1c1ccccc1Cl.O=S(=O)(O)c1ccccc1 [Sample 2]		None	None	
CCOC(=O)C1=C(COCCN)NC(C)=C(C(=O)OC)[C@@H]1c1ccccc1Cl.O=S(=O)(O)c1ccccc1 [Sample 3]		None	None	
